For one test, the system named is Mycobacterium abscessus. The experiment in a line: MIC against Mycobacterium abscessus (Mab_ATCC, MHII broth). Format: cell-based. Particulars: Mycobacteroides abscessus; Mycobacterium abscessus ATCC strain; Mueller-Hinton broth (MHII). The source says:
Key for Tables: MIC: Minimum Inhibitory Concentration; MABA: microplate-based Alamar Blue assay; Mab: Mycobacterium abscessus; ATCC: American Type Culture Collection; and MHII: Mueller-Hinton broth.

For the next test, the system named is M tb H37Rv. The experiment in a line: MIC determination against M tb H37Rv (green fluorescent protein reporter assay; MIC-MABA). The note with it: Mycobacterium tuberculosis, H37RV, 240 h, read-out: M. TB H37Rv: MIC-MABA: MIC, M. tb H37Rv; 7H9 broth; 10 days exposure; MIC = lowest concentration inhibiting fluorescence by 90%. It counts as cell-based, Mycobacterium tuberculosis.

Molecules are shown by their SMILES. In brackets after ≈: the same amount, converted by molar mass.

As to `Cc1cc(F)c2cc(C(=O)NC3CCCCCCC3)[nH]c2n1` [MPL-044, N-cyclooctyl-4-fluoro-6-methyl-1H-pyrrolo[2,3-b]pyridine-2-carboxamide], the figures for the minimum inhibitory concentration (MIC) against Mycobacterium abscessus and with M tb H37Rv were 2 µg/mL (≈ 6.59 µM) and 0.013 µg/mL (≈ 0.0429 µM), respectively. Regarding `Cc1cc(Cl)c2cc(C(=O)NC3CCC(C)(C)CC3)[nH]c2n1` [MPL-119, 4-chloro-N-(4,4-dimethylcyclohexyl)-6-methyl-1H-pyrrolo[2,3-b]pyridine-2-carboxamide], the minimal inhibitory concentration (MIC) is 0.5 µg/mL (≈ 1.56 µM) in the test with Mycobacterium abscessus and 0.14 µg/mL (≈ 0.438 µM) with M tb H37Rv. On the same counts, the results for `Cc1nc2[nH]c(C(=O)NC3CC[Si](C)(C)CC3)cc2c(Cl)c1Cl` [MPL-230, 4,5-dichloro-N-(1,1-dimethylsilinan-4-yl)-6-methyl-1H-pyrrolo[2,3-b]pyridine-2-carboxamide] are 16 µg/mL (≈ 43.2 µM) and 0.004 µg/mL (≈ 0.0108 µM). With `Cc1nc2[nH]c(C(=O)NC3CC[Si](C)(C)CC3)cc2c(F)c1F` [MPL-229, N-(1,1-dimethylsilinan-4-yl)-4,5-difluoro-6-methyl-1H-pyrrolo[2,3-b]pyridine-2-carboxamide], the MIC with Mycobacterium abscessus was determined as 0.12 µg/mL (≈ 0.356 µM); with M tb H37Rv, 0.0058 µg/mL (≈ 0.0172 µM). Consider `Cc1cc(Cl)c2cc(C(=O)N[C@H]3C[C@H]4C[C@@H]([C@@H]3C)C4(C)C)[nH]c2n1` [MPL-045, 4-chloro-6-methyl-N-[(1S,2S,3S,5R)-2,6,6-trimethylnorpinan-3-yl]-1H-pyrrolo[2,3-b]pyridine-2-carboxamide], for which the MIC in the test with Mycobacterium abscessus worked out at 2 µg/mL (≈ 5.78 µM); in the test with M tb H37Rv, 0.069 µg/mL (≈ 0.199 µM).

As to `Cc1cc2cc(C(=O)N[C@H]3C[C@H]4C[C@@H]([C@@H]3C)C4(C)C)[nH]c2cn1` [MPL-124, 5-methyl-N-[(1S,2S,3S,5R)-2,6,6-trimethylnorpinan-3-yl]-1H-pyrrolo[2,3-c]pyridine-2-carboxamide], the minimum inhibitory concentration (MIC) was 16 µg/mL (≈ 51.4 µM) against Mycobacterium abscessus and 3.1 µg/mL (≈ 9.95 µM) with M tb H37Rv. On the same counts, the results for `COc1ccc2cc(C(=O)N[C@@H]3CCC[Si](C)(C)CC3)[nH]c2n1` (single isomer, unassigned) [MPL-466B] are 8 µg/mL (≈ 24.1 µM) and > 1 µg/mL. On the same counts, the results for `CC1(C)CCC(NC(=O)c2cc3cc(Cl)ncc3[nH]2)CC1` [MPL-127, 5-chloro-N-(4,4-dimethylcyclohexyl)-1H-pyrrolo[2,3-c]pyridine-2-carboxamide] are 8 µg/mL (≈ 26.2 µM) and 0.54 µg/mL (≈ 1.77 µM).

With `Cc1nc(F)cc2cc(C(=O)NC3CCC(C)(C)CC3)[nH]c12` [MPL-135, N-(4,4-dimethylcyclohexyl)-5-fluoro-7-methyl-1H-pyrrolo[2,3-c]pyridine-2-carboxamide], the MIC in the test on Mycobacterium abscessus came to 8 µg/mL (≈ 26.4 µM); in the test with M tb H37Rv, 1.5 µg/mL (≈ 4.94 µM).

Turning to `Cc1cc(Cl)c2cc(C(=O)NC3CC[Si](C)(C)C3)[nH]c2n1` (centres unmarked) [MPL-401, 4-chloro-N-(1,1-dimethylsilolan-3-yl)-6-methyl-1H-pyrrolo[2,3-b]pyridine-2-carboxamide], the minimum inhibitory concentration (MIC) with Mycobacterium abscessus amounted to 0.75 µg/mL (≈ 2.33 µM); with M tb H37Rv, 0.016 µg/mL (≈ 0.0497 µM). On the same counts, the results for `Cc1cc(F)c2c(C)c(C(=O)NC3CC[Si](C)(C)CC3)[nH]c2n1` [MPL-209, N-(1,1-dimethylsilinan-4-yl)-4-fluoro-3,6-dimethyl-1H-pyrrolo[2,3-b]pyridine-2-carboxamide] are 1 µg/mL (≈ 3 µM) and 0.03 µg/mL (≈ 0.09 µM).

Consider `COc1cc(F)nc2[nH]c(C(=O)NC3CC[Si](C)(C)CC3)cc12` [MPL-200, N-(1,1-dimethylsilinan-4-yl)-6-fluoro-4-methoxy-1H-pyrrolo[2,3-b]pyridine-2-carboxamide], for which the figures for the MIC in the test with Mycobacterium abscessus and in the test on M tb H37Rv were 16 µg/mL (≈ 47.7 µM) and 0.072 µg/mL (≈ 0.215 µM), respectively. In the same order, the values of `Cc1nc2[nH]c(C(=O)NC3CC[Si](C)(C)CC3)cc2c(F)c1Cl` [MPL-232, 5-chloro-N-(1,1-dimethylsilinan-4-yl)-4-fluoro-6-methyl-1H-pyrrolo[2,3-b]pyridine-2-carboxamide] are 0.38 µg/mL (≈ 1.07 µM) and 0.03 µg/mL (≈ 0.0848 µM). On to `CC1(C)C2CCC1(C)C(NC(=O)c1cc3c(F)cncc3[nH]1)C2` (centres unmarked) [MPL-188, 4-fluoro-N-(1,7,7-trimethylnorbornan-2-yl)-1H-pyrrolo[2,3-c]pyridine-2-carboxamide], for which, in the test on Mycobacterium abscessus, the minimal inhibitory concentration (MIC) is 8 µg/mL (≈ 25.4 µM). Regarding `O=C(NC1CCC2(CC1)CC2)c1cc2c(Cl)cncc2[nH]1` [MPL-163, 4-chloro-N-spiro[2.5]octan-6-yl-1H-pyrrolo[2,3-c]pyridine-2-carboxamide], the MIC with M tb H37Rv amounted to 0.64 µg/mL (≈ 2.11 µM). As to `O=C(NC1CC[Si]2(CCCCC2)CC1)c1cc2cc(-c3ccccc3F)cnc2[nH]1` [MPL-434, 5-(2-fluorophenyl)-N-(6-silaspiro[5.5]undecan-3-yl)-1H-pyrrolo[2,3-b]pyridine-2-carboxamide], the MIC with M tb H37Rv is 0.061 µg/mL (≈ 0.145 µM). Still for that read-out and setting: for `Cc1ncc2[nH]c(C(=O)NC3CCC[Si](C)(C)CC3)cc2c1F` (centres unmarked) [MPL-351, N-(1,1-dimethylsilepan-4-yl)-4-fluoro-5-methyl-1H-pyrrolo[2,3-c]pyridine-2-carboxamide] the value was 0.248 µg/mL (≈ 0.744 µM); for `COc1cc(Cl)c2cc(C(=O)NC3CC[Si](C)(C)CC3)[nH]c2n1` [MPL-465, 4-chloro-N-(1,1-dimethylsilinan-4-yl)-6-methoxy-1H-pyrrolo[2,3-b]pyridine-2-carboxamide], 0.008 µg/mL (≈ 0.0227 µM); for `O=C(NC1CCC2(CC1)CC2(F)F)c1cc2c(Cl)cncc2[nH]1` (centres unmarked) [MPL-164, 4-chloro-N-(1,1-difluorospiro[2.5]octan-6-yl)-1H-pyrrolo[2,3-c]pyridine-2-carboxamide], 0.35 µg/mL (≈ 1.03 µM). Same read-out and setting: for `COc1cncc2[nH]c(C(=O)NC3CC[Si](C)(C)CC3)cc12` [MPL-202, N-(1,1-dimethylsilinan-4-yl)-4-methoxy-1H-pyrrolo[2,3-c]pyridine-2-carboxamide] the value was 0.11 µg/mL (≈ 0.346 µM). Still for that read-out and setting: with `Cc1nc2[nH]c(C(=O)N[C@@H]3CCC[Si](C)(C)CC3)cc2c(F)c1F` (single isomer, unassigned) [MPL-282A] the figure was 0.051 µg/mL (≈ 0.145 µM). Turning to `O=C(NC1CC[Si]2(CCCCC2)CC1)c1cc2c(Cl)cncc2[nH]1` [MPL-260, 4-chloro-N-(6-silaspiro[5.5]undecan-3-yl)-1H-pyrrolo[2,3-c]pyridine-2-carboxamide], the MIC with M tb H37Rv was 0.0075 µg/mL (≈ 0.0207 µM).

Consider `CC1(C)C2CCC1(C)C(NC(=O)c1cc3c(C(F)(F)F)cncc3[nH]1)C2` (centres unmarked) [MPL-190, 4-(trifluoromethyl)-N-(1,7,7-trimethylnorbornan-2-yl)-1H-pyrrolo[2,3-c]pyridine-2-carboxamide], for which, in the test with M tb H37Rv, the MIC is 0.24 µg/mL (≈ 0.657 µM).

Take `O=C(NC1CC2CCC(C2)C1)c1cc2c(F)ccnc2[nH]1` (centres unmarked) [MPL-157, N-(3-bicyclo[3.2.1]octanyl)-4-fluoro-1H-pyrrolo[2,3-b]pyridine-2-carboxamide]: the MIC in the test with M tb H37Rv is 2.6 µg/mL (≈ 9.05 µM). Same read-out and setting: with `C[Si]1(C)CCCC(NC(=O)c2cc3c(F)c(C(F)(F)F)ncc3[nH]2)CC1` (centres unmarked) [MPL-366, N-(1,1-dimethylsilepan-4-yl)-4-fluoro-5-(trifluoromethyl)-1H-pyrrolo[2,3-c]pyridine-2-carboxamide] the figure was 0.492 µg/mL (≈ 1.27 µM). Take `Cc1ncc2[nH]c(C(=O)NC3CC[Si](C)(C)CC3)c(C)c2c1F` [MPL-352, N-(1,1-dimethylsilinan-4-yl)-4-fluoro-3,5-dimethyl-1H-pyrrolo[2,3-c]pyridine-2-carboxamide]: the minimum inhibitory concentration (MIC) in the test on M tb H37Rv was 0.122 µg/mL (≈ 0.366 µM). Still for that read-out and setting: with `Cc1c(C(=O)NC2CC[Si](C)(C)CC2)[nH]c2cncc(F)c12` [MPL-226, N-(1,1-dimethylsilinan-4-yl)-4-fluoro-3-methyl-1H-pyrrolo[2,3-c]pyridine-2-carboxamide] the figure was 0.75 µg/mL (≈ 2.35 µM); with `CC1(C)C2CCC1(C)C(NC(=O)c1cc3c(Cl)cncc3[nH]1)C2` (centres unmarked) [MPL-189, 4-chloro-N-(1,7,7-trimethylnorbornan-2-yl)-1H-pyrrolo[2,3-c]pyridine-2-carboxamide], 0.095 µg/mL (≈ 0.286 µM); with `N#Cc1cncc2[nH]c(C(=O)NC3CCCCCCC3)cc12` [MPL-096, 4-cyano-N-cyclooctyl-1H-pyrrolo[2,3-c]pyridine-2-carboxamide], 0.47 µg/mL (≈ 1.59 µM).

Consider `Cc1nc2[nH]c(C(=O)N[C@@H]3CC[Si](C)(C)C3)cc2c(F)c1F` (single isomer, unassigned) [MPL-295A], for which, in the test with M tb H37Rv, the MIC was found to be 0.22 µg/mL (≈ 0.68 µM).

With `Cc1cc(F)c2c(C)c(C(=O)NC3CC[Si]4(CCCC4)CC3)[nH]c2n1` [MPL-280, 4-fluoro-3,6-dimethyl-N-(5-silaspiro[4.5]decan-8-yl)-1H-pyrrolo[2,3-b]pyridine-2-carboxamide], the MIC in the test with M tb H37Rv amounted to 0.043 µg/mL (≈ 0.12 µM). On the same count and under the same terms, for `O=C(NC1CCCCCCC1)c1cc2c(F)cncc2[nH]1` [MPL-093, N-cyclooctyl-4-fluoro-1H-pyrrolo[2,3-c]pyridine-2-carboxamide] the value was 1.1 µg/mL (≈ 3.8 µM).

As for `Cc1c(C(=O)N[C@H]2C[C@H]3C[C@@H]([C@@H]2C)C3(C)C)[nH]c2nccc(F)c12` [MPL-174, 4-fluoro-3-methyl-N-[(1S,2S,3S,5R)-2,6,6-trimethylnorpinan-3-yl]-1H-pyrrolo[2,3-b]pyridine-2-carboxamide], the MIC with M tb H37Rv is 0.19 µg/mL (≈ 0.577 µM). The same measure, in the same setting: with `Cc1cc2cc(C(=O)NC3CCC(C)(C)CC3)[nH]c2cn1` [MPL-125, N-(4,4-dimethylcyclohexyl)-5-methyl-1H-pyrrolo[2,3-c]pyridine-2-carboxamide] the figure was 3.1 µg/mL (≈ 10.9 µM); with `CC1(C)C2CCC1(C)C(NC(=O)c1cc3c(F)ccnc3[nH]1)C2` (centres unmarked) [MPL-106, 4-fluoro-N-(1,7,7-trimethylnorbornan-2-yl)-1H-pyrrolo[2,3-b]pyridine-2-carboxamide], 0.16 µg/mL (≈ 0.507 µM); with `Cc1cc2cc(C(=O)N[C@H]3C[C@H]4C[C@@H]([C@@H]3C)C4(C)C)[nH]c2nc1C` [MPL-070, 5,6-dimethyl-N-((1S,2S,3S,5R)-2,6,6-trimethylbicyclo[3.1.1]heptan-3-yl)-1H-pyrrolo[2,3-b]pyridine-2-carboxamide], 0.49 µg/mL (≈ 1.51 µM). On to `Cc1cc(F)c2cc(C(=O)NC3CC[Si]4(CCCC4)CC3)[nH]c2n1` [MPL-253, 4-fluoro-6-methyl-N-(5-silaspiro[4.5]decan-8-yl)-1H-pyrrolo[2,3-b]pyridine-2-carboxamide], for which the MIC in the test with M tb H37Rv was determined as 0.056 µg/mL (≈ 0.162 µM).

These data come from US20230002372A1, “AZAINDOLE CARBOXAMIDE COMPOUNDS FOR THE TREATMENT OF MYCOBACTERIAL INFECTIONS” (THE GLOBAL ALLIANCE FOR TB DRUG DEVELOPMENT, INC., priority 2019, published 2023).
